Where a SMILES comes first, the peptide text is derived from it. [ ]: non-standard residue; d: D form. The star is where a group is joined. Trp(5-OH) = N[C@@H](Cc1c[nH]c2ccc(O)cc12)C(=O)O; dTrp(5-OH) = N[C@H](Cc1c[nH]c2ccc(O)cc12)C(=O)O; dTrp(2-Me) = Cc1[nH]c2ccccc2c1C[C@@H](N)C(=O)O; Phe(3-Br) = N[C@@H](Cc1cccc(Br)c1)C(=O)O; dNMeW = CN[C@H](Cc1c[nH]c2ccccc12)C(=O)O; Fmoc = O=C(OCC1c2ccccc2-c2ccccc21)*; Gly(octyl) = CCCCCCCC[C@H](N)C(=O)O; Aad = N[C@@H](CCCC(=O)O)C(=O)O; Aoc(2) = CCCCCC[C@H](N)C(=O)O; Ahp(2) = CCCCC[C@H](N)C(=O)O; Nle = CCCC[C@H](N)C(=O)O
Tests used:
[1] = biological target: T1, CCK-B receptors (CHO-CCK) (Homo sapiens, UniProt P32239); assay: Calcium flux (Fluo-8) agonist test on CHO-CCK model cells; format: cell-based; settings: CHO-CCK cells, Fluo-8 calcium flux
T1 construct: expressed in transfected cells; host or cells: CHO (CHO-CCK model cells)
T1 sequence (P32239 1-447): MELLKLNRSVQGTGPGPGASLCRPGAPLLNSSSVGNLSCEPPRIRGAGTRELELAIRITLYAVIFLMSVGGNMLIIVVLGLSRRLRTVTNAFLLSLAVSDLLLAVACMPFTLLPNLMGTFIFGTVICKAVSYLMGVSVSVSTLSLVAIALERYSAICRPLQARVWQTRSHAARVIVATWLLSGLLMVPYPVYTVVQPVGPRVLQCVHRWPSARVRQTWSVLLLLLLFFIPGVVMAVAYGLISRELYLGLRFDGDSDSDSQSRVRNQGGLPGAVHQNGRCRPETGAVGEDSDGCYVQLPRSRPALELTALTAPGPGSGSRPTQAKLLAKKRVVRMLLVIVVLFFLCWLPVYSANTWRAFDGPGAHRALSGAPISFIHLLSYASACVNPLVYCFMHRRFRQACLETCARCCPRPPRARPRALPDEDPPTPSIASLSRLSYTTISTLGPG
Method in brief: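 Agonist-mode Fluo-8 calcium flux read on CHO-CCK cells after dye loading 30 min at 37 °C plus 30 min at room temperature.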

[2] = biological target: T1, CCK-B receptors (CHO-CCK); assay: Calcium flux (Fluo-8) antagonist test on CHO-CCK model cells in presence of CCK8; format: cell-based
[3] = in presence of 10 nM CCK8, bound in μM

| EC50 ([1]; 100% control = 20 nM CCK8) | EC50 ([2]; in presence of 10 nM CCK8) | EC50 ([1]; bound in μM) | EC50 [2, 3] | Structure (SMILES) |
| --- | --- | --- | --- | --- |
| 5.46 µM | 4 µM |  |  | CCCC[C@H](NC(=O)[C@@H](Cc1c(C)[nH]c2ccccc12)NC(C)=O)C(=O)N[C@@H](CC(=O)O)C(=O)N[C@@H](Cc1cn(C)c2ccccc12)C(N)=O [HT-234, Ac-(2-Me-Trp)-Nle-Asp-(1-Me-Trp)-NH2] |
|  |  | > 10 µM | > 10 µM | CCCC[C@H](NC(=O)[C@@H](Cc1c(C)[nH]c2ccccc12)NC(C)=O)C(=O)N[C@@H](CC(=O)O)C(=O)N[C@@H](Cc1c(C)[nH]c2ccccc12)C(N)=O [HT-235, Ac-(2-Me-Trp)-Nle-Asp-(2-Me-Trp)-NH2] |
| 0.0977 µM | 0.357 µM |  |  | CCCC[C@H](NC(=O)[C@@H](Cc1cccc(Br)c1)NC(C)=O)C(=O)N[C@@H](CC(=O)O)C(=O)N[C@@H](Cc1cccc(Br)c1)C(N)=O [HT-236, Ac-Phe(3-Br)-Nle-Asp-Phe(3-Br)-NH2] |
|  |  | > 10 µM | > 10 µM | CCCC[C@H](NC(=O)[C@@H](Cc1cccc(Br)c1)NC(C)=O)C(=O)N[C@@H](CCC(=O)O)C(=O)N[C@@H](Cc1cccc(Br)c1)C(N)=O [HT-237, Ac-Phe(3-Br)-Nle-Glu-Phe(3-Br)-NH2] |
| 0.0344 µM | 28.2 µM |  |  | CCCC[C@H](NC(=O)[C@H](Cc1c[nH]c2ccccc12)NC(C)=O)C(=O)N[C@@H](CCC(=O)O)C(=O)N[C@@H](Cc1cccc(Br)c1)C(N)=O [HT-238, Ac-D-Trp-Nle-Glu-Phe(3-Br)-NH2] |
|  |  | > 10 µM | > 10 µM | CCCC[C@H](NC(=O)[C@H](Cc1c[nH]c2ccccc12)NC(C)=O)C(=O)N[C@@H](CCC(=O)O)C(=O)N[C@@H](Cc1c[nH]c2ccc(O)cc12)C(N)=O [HT-239, Ac-D-Trp-Nle-Glu-(5-HTP)-NH2] (Ac-W[Nle]E[Trp(5-OH)]-NH2) |
| 0.527 µM |  |  | > 10 µM | CCCC[C@H](NC(=O)[C@@H](Cc1c[nH]c2ccc(O)cc12)NC(C)=O)C(=O)N[C@@H](CCC(=O)O)C(=O)N[C@@H](Cc1cccc(Br)c1)C(N)=O [HT-240, Ac-(5-HTP)-Nle-Glu-Phe(3-Br)-NH2] (Ac-[dTrp(5-OH)][Nle]E[Phe(3-Br)]-NH2) |
| 3.55 µM |  |  | > 10 µM | CCCC[C@H](NC(=O)[C@H](Cc1c[nH]c2ccccc12)NC(C)=O)C(=O)N[C@@H](CCC(=O)O)C(=O)N[C@@H](Cc1cn(C)c2ccccc12)C(N)=O [HT-241, Ac-D-Trp-Nle-Glu-(1-Me-Trp)-NH2] |
|  | 1.31 µM | > 10 µM |  | CCCC[C@H](NC(=O)[C@H](Cc1c[nH]c2ccccc12)NC(C)=O)C(=O)N[C@@H](CCC(=O)O)C(=O)N[C@@H](Cc1c(C)[nH]c2ccccc12)C(N)=O [HT-242, Ac-D-Trp-Nle-Glu-(2-Me-Trp)-NH2] |
| 0.44 µM | 1.41 µM |  |  | CCCC[C@H](NC(=O)[C@@H](Cc1cn(C)c2ccccc12)NC(C)=O)C(=O)N[C@@H](CCC(=O)O)C(=O)N[C@@H](Cc1cccc(Br)c1)C(N)=O [HT-243, Ac-(1-Me-Trp)-Nle-Glu-Phe(3-Br)-NH2] |
| 7.32 µM | 1.36 µM |  |  | CCCC[C@H](NC(=O)[C@@H](Cc1c(C)[nH]c2ccccc12)NC(C)=O)C(=O)N[C@@H](CCC(=O)O)C(=O)N[C@@H](Cc1cccc(Br)c1)C(N)=O [HT-244, Ac-(2-Me-Trp)-Nle-Glu-Phe(3-Br)-NH2] |
|  | 1.76 µM | > 10 µM |  | CCCC[C@H](NC(=O)[C@@H](Cc1cn(C)c2ccccc12)NC(C)=O)C(=O)N[C@@H](CCC(=O)O)C(=O)N[C@@H](Cc1cn(C)c2ccccc12)C(N)=O [HT-245, Ac-(1-Me-Trp)-Nle-Glu-(1-Me-Trp)-NH2] |
|  | 2.13 µM | > 10 µM |  | CCCC[C@H](NC(=O)[C@@H](Cc1cn(C)c2ccccc12)NC(C)=O)C(=O)N[C@@H](CCC(=O)O)C(=O)N[C@@H](Cc1c(C)[nH]c2ccccc12)C(N)=O [HT-246, Ac-(1-Me-Trp)-Nle-Glu-(2-Me-Trp)-NH2] |
| 1.9 µM | 0.62 µM |  |  | CCCC[C@H](NC(=O)[C@@H](Cc1c(C)[nH]c2ccccc12)NC(C)=O)C(=O)N[C@@H](CCC(=O)O)C(=O)N[C@@H](Cc1cn(C)c2ccccc12)C(N)=O [HT-247, Ac-(2-Me-Trp)-Nle-Glu-(1-Me-Trp)-NH2] |
| 0.0331 µM | 0.47 µM |  |  | CCCC[C@H](NC(=O)[C@@H](Cc1c(C)[nH]c2ccccc12)NC(C)=O)C(=O)N[C@@H](CCC(=O)O)C(=O)N[C@@H](Cc1c(C)[nH]c2ccccc12)C(N)=O [HT-248, Ac-(2-Me-Trp)-Nle-Glu-(2-Me-Trp)-NH2] |
| 0.00226 µM | 4.55 µM |  |  | CCCC[C@H](NC(=O)[C@@H](Cc1c[nH]c2ccccc12)N(C)C(=O)OCC1c2ccccc2-c2ccccc21)C(=O)N[C@@H](CC(=O)O)C(=O)N[C@@H](Cc1cccc(Br)c1)C(N)=O [HT-249, Fmoc-(N-Me-D-Trp)-Nle-Asp-Phe(3-Br)-NH2] (Fmoc-[dNMeW][Nle]D[Phe(3-Br)]-NH2) |
| 0.386 µM | 2.85 µM |  |  | CCCC[C@H](NC(=O)[C@H](Cc1c[nH]c2ccccc12)N(C)C(=O)CNC(=O)OCC1c2ccccc2-c2ccccc21)C(=O)N[C@@H](CC(=O)O)C(=O)N[C@@H](Cc1cccc(Br)c1)C(N)=O [HT-250, Fmoc-Gly-(N-Me-D-Trp)-Nle-Asp-Phe(3-Br)-NH2] |
| 0.00592 µM | 1.61 µM |  |  | CCCC[C@H](NC(=O)[C@@H](Cc1c[nH]c2ccccc12)N(C)C(=O)CNC(=O)OCC1c2ccccc2-c2ccccc21)C(=O)N[C@@H](CC(=O)O)C(=O)N[C@@H](Cc1cccc(Br)c1)C(N)=O [HT-251, Fmoc-Gly-(N-Me-Trp)-Nle-Asp Phe(3-Br)-NH2] |
| 0.255 µM | 1.03 µM |  |  | CCCC[C@H](NC(=O)[C@@H](Cc1c[nH]c2ccccc12)N(C)C(=O)CN(C)C(=O)OCC1c2ccccc2-c2ccccc21)C(=O)N[C@@H](CC(=O)O)C(=O)N[C@@H](Cc1cccc(Br)c1)C(N)=O [HT-252, Fmoc-(N-Me-Gly)-(N-Me-Trp)-Nle-Asp-Phe(3-Br)-NH2] |
| 0.744 µM | 1.92 µM |  |  | CCCC[C@H](NC(=O)[C@@H](Cc1c[nH]c2ccccc12)N(C)C(=O)OCC1c2ccccc2-c2ccccc21)C(=O)N[C@@H](CC(=O)OC)C(=O)N[C@@H](Cc1cccc(Br)c1)C(N)=O [HT-253, Fmoc-(N-Me-Trp)-Nle-Asp(O-Me)-Phe(3-Br)-NH2] (Fmoc-[dNMeW][Nle]D(OMe)[Phe(3-Br)]-NH2) |
| 0.0226 µM | 1.04 µM |  |  | CCCCC[C@H](NC(=O)[C@@H](Cc1c[nH]c2ccccc12)N(C)C(=O)OCC1c2ccccc2-c2ccccc21)C(=O)N[C@@H](CC(=O)OC)C(=O)N[C@@H](Cc1cccc(Br)c1)C(N)=O [HT-254, Fmoc-(N-Me-Trp)-Pa-Asp(O-Me)-Phe(3-Br)-NH2] (Fmoc-[dNMeW][Ahp(2)]D(OMe)[Phe(3-Br)]-NH2) |
| 0.000569 µM | 0.0403 µM |  |  | CSCC[C@H](NC(=O)[C@@H](Cc1cc2ccccc2[nH]1)NC(=O)[C@@H](N)CCC(=O)O)C(=O)N[C@@H](CC(=O)O)C(=O)N[C@@H](Cc1cccc(Br)c1)C(N)=O [HT-255, Glu-D-Trp-Met-Asp-Phe(3-Br)-NH2] |
| 0.000672 µM | 0.0419 µM |  |  | CSCC[C@H](NC(=O)[C@@H](Cc1cc2ccccc2[nH]1)NC(=O)[C@@]1(O)C[C@@H](O)[C@H](NC(C)=O)C([C@@H](O)[C@@H](O)CO)O1)C(=O)N[C@@H](CC(=O)O)C(=O)N[C@@H](Cc1cccc(Br)c1)C(N)=O (stereo partly drawn) [HT-256, Sia-D-Trp-Met-Asp-Phe(3-Br)-NH2] |
| 0.00334 µM | 0.132 µM |  |  | CCCCC[C@H](NC(=O)[C@@H](Cc1c[nH]c2ccccc12)NC(C)=O)C(=O)N[C@@H](CC(=O)O)C(=O)N[C@@H](Cc1cccc(Br)c1)C(N)=O [HT-257, Ac-D-Trp-Pa-Asp-Phe(3-Br)-NH2] (Ac-[dW][Ahp(2)]D[Phe(3-Br)]-NH2) |
| 0.0226 µM | 1.04 µM |  |  | CCCCC[C@H](NC(=O)[C@@H](Cc1c[nH]c2ccccc12)N(C)C(=O)OCC1c2ccccc2-c2ccccc21)C(=O)N[C@@H](CC(=O)O)C(=O)N[C@@H](Cc1cccc(Br)c1)C(N)=O [HT-258, Fmoc-(N-Me-Trp)-Pa-Asp-Phe(3-Br)-NH2] (Fmoc-[dNMeW][Ahp(2)]D[Phe(3-Br)]-NH2) |
| 0.00229 µM | 0.0592 µM |  |  | CCCCCC[C@H](NC(=O)[C@H](Cc1c[nH]c2ccccc12)NC(C)=O)C(=O)N[C@@H](CC(=O)O)C(=O)N[C@@H](Cc1cccc(Br)c1)C(N)=O [HT-259, Ac-D-Trp-Oa-Asp-Phe(3-Br)-NH2] (Ac-W[Aoc(2)]D[Phe(3-Br)]-NH2) |
| 0.16 µM | 2.74 µM |  |  | CCCCCCC[C@H](NC(=O)[C@H](Cc1c[nH]c2ccccc12)NC(C)=O)C(=O)N[C@@H](CC(=O)O)C(=O)N[C@@H](Cc1cccc(Br)c1)C(N)=O [HT-260, Ac-D-Trp-Na-Asp-Phe(3-Br)-NH2] |
| 0.362 µM | 3.82 µM |  |  | CCCCCCCC[C@H](NC(=O)[C@H](Cc1c[nH]c2ccccc12)NC(C)=O)C(=O)N[C@@H](CC(=O)O)C(=O)N[C@@H](Cc1cccc(Br)c1)C(N)=O [HT-261, Ac-D-Trp-Da-Asp-Phe(3-Br)-NH2] (Ac-W[Gly(octyl)]D[Phe(3-Br)]-NH2) |
| 1.18 µM |  |  | > 10 µM | CCCC[C@H](NC(=O)[C@@H](Cc1c(C)[nH]c2ccccc12)NC(C)=O)C(=O)N[C@@H](CCCC(=O)O)C(=O)N[C@@H](Cc1cccc(Br)c1)C(N)=O [HT-262, Ac-(2-Me-Trp)-Nle-Aa-Phe(3 Br)-NH2] (Ac-[dTrp(2-Me)][Nle][Aad][Phe(3-Br)]-NH2) |
